{
  "source": "patent EP4548907A1",
  "about": "(SkyLab AG, priority 2023, dated 2025)",
  "parameters_in_all_cases": "species or system bovine",
  "key": {"[1]": {"assay": "Experiment 2: surface microhardness recovery of demineralised enamel, aspartic acid with or without tricalcium phosphate", "conditions": "single treatment 16 hours at 37°C, solutions pH 6-6.5, n=10", "experimental": "Enamel blocks were sectioned from bovine teeth, lapped plano-parallel and highly polished. The baseline surface microhardness of the enamel samples was then measured.\nThe enamel samples were artificially demineralised by immersing them in demineralisation solution for 60 minutes. Following demineralisation, the surface microhardness of the enamel samples was remeasured. The samples were then stratified between the treatment groups based upon the baseline surface microhardness.\n(§1) The enamel samples in each treatment group were treated with the assigned test products for 16 hours. Following treatment, the surface microhardness of each treated enamel sample was remeasured.\n(§2) The percentage of surface microhardness recovery (%SMHR) achieved by the test products was calculated and used to compare the ability of the test products to repair the demineralised enamel samples.\nThe pH of each solution was adjusted into the pH range shown in Table 2, using sodium hydroxide or dilute hydrochloric acid. All pH measurements were taken with a calibrated pH electrode (Serial Number: 13-620-631) and either an Accumet XI,250 ion meter (Asset Number: UK01200-LAB-15-002), or an Orion 720 ion meter (Asset Number: 4F064).\nApproximately 90 enamel blocks (Measuring 4mm x 4mm) were sectioned from bovine incisors and were lapped plano-parallel (both sides) using a Logitech PM5 lapping machine (Asset number: 4F008).\n(§3) The enamel surfaces of the samples were machine-polished with 1 micron and 0.3 micron aluminium oxide slurries, using a MetPrep Saphir 550 Polisher (Asset Number: UK01200-1010015-114).\n(§4) The surface microhardness of each block was measured at the following time points: • At baseline. • After the demineralisation treatment. • After overnight treatment.\n(§5) The surface microhardness of the enamel samples was measured using a Buehler MicroMet 5103 (Asset Number: 4F101) and OmniMet MHT software.\n(§6) The Intertek CRS method for measuring the surface microhardness of the samples at each time point has been provided below: • Five Knoop indents • 50 gram load force • 10 second dwell time • X50 objective\n(§7) A demineralisation solution was prepared that contained: • ▪ 50 mM Acetic acid • ▪ 2.2 mM Calcium nitrate • ▪ 2.2 mM Potassium phosphate monobasic • ▪ 0.1 ppm Sodium fluoride\nThe pH of the solution was adjusted to pH 4.5. All pH measurements were taken with a calibrated pH electrode (Serial Number: 13-620-631) and either an Accumet XI,250 ion meter (Asset Number: UK01200-LAB-15-002), or an Orion 720 ion meter (Asset Number: 4F064). […]\nThe ability of the test formulations to repair the demineralised enamel samples after a single treatment was assessed by calculating the percentage of surface microhardness recovery values (%SMHR) achieved by each test product. […]"}, "[2]": {"assay": "Experiment 3: surface microhardness recovery of demineralised enamel, aspartic acid combined with different calcium sources", "conditions": "single treatment 16 hours at 37°C, solutions pH 6 to 6.5 (excluding controls), n=10", "experimental": "Enamel blocks were sectioned from bovine teeth, lapped plane-parallel, and highly polished. The baseline surface microhardness of the enamel samples was measured. The samples were then stratified between the treatment groups based on the baseline surface microhardness values.\nThe enamel samples were artificially demineralised by immersing them in a demineralisation solution for 60 minutes. Following demineralisation, the surface microhardness of the enamel samples was remeasured.\nas §1, §2\nThe pH of each solution was adjusted into the pH range of pH 6 to 6.5, using sodium hydroxide or dilute hydrochloric acid (Excluding the positive and negative control). All pH measurements were taken with a calibrated pH electrode (Serial Number: VT1 8048) and an Accumet XI,250 ion meter (Asset Number: UK01200-LAB-15-002).\nApproximately 130 enamel blocks (Measuring 4mm x 4mm) were sectioned from bovine incisors and were lapped plano-parallel (both sides) using a Logitech PM5 lapping machine (Asset number: 4F008).\nas §3, §4, §5, §6, §7\nThe pH of the solution was adjusted to pH 4.5. All pH measurements were taken with a calibrated pH electrode (Serial Number: VT1 8048) and an Accumet XI,250 ion meter (Asset Number: UK01200-LAB-15-002.\nThe enamel blocks were demineralised by placing the samples into a Sterilin containing 8mL of demineralisation solution per sample. All demineralisation exposures were performed for 60 minutes, in an oven set to 37°C for 60 minutes.\nThe enamel samples were placed into their assigned test solutions for 16 hours at 37°C, whilst being agitated with a magnetic stirrer. Aquasil Putty was used to attach the 10 enamel blocks in each treatment group to a sample holder with the enamel surfaces of the samples exposed.\nFollowing the removal of the samples from the test product, each enamel block was rinsed with deionised water for 1-2 minutes and sonicated for 10 minutes to remove any loose debris. The enamel samples were then returned to their original containers.\nThe ability of the test formulations to repair the demineralised enamel samples after a single treatment was assessed by calculating the percentage of surface microhardness recovery values (%SMHR) achieved by each test product.\nThe formula for calculating the %SMHR values achieved by each treatment is shown below: % SMRH = 100∗[(SMHPost-treatment−SMHPost-demineralisation)/(SMH; Baseline−SMH Post-demineralisation)] [formula]"}, "[3]": {"assay": "Summary of 3 experiments in comparison with negative and positive controls", "conditions": "Water (Negative control) 0 units; for Comparison: units better than negative control / Comparison: units better than fluoride / Comparison: units worser than negative control: scale: Fluoride (Positive control) 100 units", "from_the_text": "Table 10. Summary of 3 experiments in comparison with negative and positive controls"}, "[4]": {"assay": "Experiment 1: remineralization of demineralised enamel, surface microhardness (SMH) after single overnight treatment with calcium sources", "conditions": "single overnight immersion 16 hours, 37°C; for Mean (%SMR): percentage surface microhardness recovery", "experimental": "This in vitro study was designed to compare the remineralization efficacy of the test products, following a single, overnight treatment application.\nBovine enamel blocks were sectioned, machine polished and flattened. The baseline surface microhardness of the enamel samples was measured with a Buehler MicroMet 5103 surface microhardness machine.\nEach bovine enamel block was demineralised for 1 hour by immersing the sample at 37°C, in a demineralization solution described by Huang et. al. (2009)^1. Following demineralization, the surface microhardness of each enamel sample was remeasured.\nAll demineralized enamel samples were subjected to an overnight immersion in the assigned test product, with immersion solutions mixed and heated to 37°C during treatment. Following the overnight immersion, the surface microhardness of the enamel samples was remeasured. The study logistics were designed so that each enamel sample was demineralized and then immersed in the assigned treatment on the same day.\nThe ability of a single, overnight application of test products and controls to repair enamel lesions was assessed by comparing the percentage surface microhardness recoveries and the changes in surface microhardness for the treated samples.\nOne hundred and thirty enamel blocks, measuring 4 x 4 mm, were cut from bovine incisors and lapped planar-parallel using a Logitech PM5 lapping machine. The enamel surfaces of the samples were machine-polished using a MetPrep Saphir 550 to a final finish of 0.04 microns. One corner of each block was removed in order to ensure correct orientation on the SMH machine.\nThe baseline surface microhardness of the enamel samples was measured using a calibrated Buehler MicroMet 5103 microhardness indenter and Knoop diamond indenter tip.\nThe enamel samples were orientated with the abraded corner in the top right. Baseline surface microhardness indents were placed in the centre of the enamel samples. Five Knoop indents were placed in a vertical line at each timepoint (under a load of 50 g for 10 seconds). Surface imperfections were avoided, and outlying indents replaced.\nA demineralization solution was prepared according to the following specifications: • ▪ 50 mM Acetic acid • ▪ 2.2 mM Calcium nitrate • ▪ 2.2 mM Potassium phosphate monobasic • ▪ 0.1 ppm Sodium fluoride • ▪ Final pH of the solution was adjusted to 4.5 with sodium hydroxide.\nEnamel samples were mounted onto acetate squares using double-sided tape. Enamel samples were immersed in 8 ml demineralization solution per sample and placed into an oven for 1 hour (37 °C). […]\nThe post-demineralization surface microhardness of the enamel samples was measured using a calibrated Buehler MicroMet 5103 microhardness indenter and Knoop diamond indenter tip. […]"}},
  "note": "Where “and” joins values, the source holds several entries; their conditions need not be identical. Identical values can stand only once.",
  "data": [
    {"compound": "[F-].[Na+]", "note": "[1450 ppm F, Sodium Fluoride, reference compound]", "values": [
      {"measurement": "Mean %SMHR", "setting": "[1]", "value": 14, "unit": "%"},
      {"measurement": "Mean %SMHR", "setting": "[1]; listed as 1450 ppm Fluoride (Positive control)", "value": 14.12, "unit": "%"},
      {"measurement": "Mean %SMHR Value", "setting": "[2]", "value": 5.15, "unit": "%"},
      {"measurement": "Comparison: units", "setting": "[3]; position on the scale", "value": 100, "unit": "units"},
      {"measurement": "Mean (%SMR)", "setting": "[4]; n = 10", "value": 35.5556, "unit": "%"},
      {"measurement": "Mean (%SMR)", "setting": "[4]; n = 10, listed as 1450 ppm Fluoride control", "value": 36, "unit": "%"},
      {"measurement": "Mean Change in SMH", "setting": "[4]; post-treatment SMH minus demineralisation SMH (Knoop), n = 10", "value": 25.12},
      {"measurement": "mean SMH increase", "setting": "[4]; rounded values in the text", "value": 25, "unit": "HK units"}
    ]},
    {"compound": "N[C@@H](CC(=O)O)C(=O)O", "note": "[Aspartic Acid 0.1 %, L-Aspartic Acid]", "values": [
      {"measurement": "Mean %SMHR", "setting": "[1]", "value": 3.19, "unit": "%"},
      {"measurement": "Comparison: units better than negative control", "setting": "[3]", "value": "for 65 units better than negative control"}
    ]},
    {"compound": "N[C@@H](CC(=O)O)C(=O)O", "note": "[Aspartic Acid 0.5 %, L-Aspartic Acid]", "values": [
      {"measurement": "Mean %SMHR", "setting": "[1]", "value": "-37% and -37.32%"},
      {"measurement": "Comparison: units better than negative control", "setting": "[3]; listed as Aspartic acid 0,5% in distilled water", "value": "for 90 units better than negative control"}
    ]},
    {"compound": "N[C@@H](CC(=O)O)C(=O)O", "note": "[Aspartic acid 0,1% in artifical saliva, Aspartic acid]", "values": [
      {"measurement": "Comparison: units better than fluoride", "setting": "[3]", "value": "for 2 units better than fluoride"}
    ]},
    {"compound": "N[C@@H](CC(=O)O)C(=O)O", "note": "[Aspartic acid 0,2% in artificial saliva, Aspartic acid]", "values": [
      {"measurement": "Mean %SMHR Value", "setting": "[2]", "value": "16,21%"},
      {"measurement": "Comparison: units better than fluoride", "setting": "[3]; listed as Aspartic acid 0,2% in artifical saliva", "value": "for 25 units better than fluoride"}
    ]},
    {"compound": "N[C@@H](CC(=O)O)C(=O)O", "note": "[Aspartic acid 0.2 % in distilled water, Aspartic acid]", "values": [
      {"measurement": "Mean %SMHR Value", "setting": "[2]", "value": -87.69, "unit": "%"},
      {"measurement": "Mean %SMHR Value", "setting": "[2]; listed as 0.2% Aspartic acid", "value": -88, "unit": "%"},
      {"measurement": "Comparison: units worser than negative control", "setting": "[3]", "value": "for 70 units worser than negative control"}
    ]},
    {"compound": "N[C@@H](CC(=O)O)C(=O)O", "note": "[Aspartic acid 0.4 %, Aspartic acid]", "values": [
      {"measurement": "Mean %SMHR Value", "setting": "[2]", "value": -91.74, "unit": "%"},
      {"measurement": "Mean %SMHR Value", "setting": "[2]; listed as 0.4% Aspartic acid", "value": -92, "unit": "%"},
      {"measurement": "Comparison: units worser than negative control", "setting": "[3]; listed as Aspartic acid 0,4% in distilled water", "value": "for 82 units worser than negative control"}
    ]},
    {"compound": "N[C@@H](CC(=O)O)C(=O)O", "note": "[Aspartic acid 0.05 %, Aspartic acid]", "values": [
      {"measurement": "Mean %SMHR Value", "setting": "[2]", "value": -35.13, "unit": "%"},
      {"measurement": "Comparison: units better than negative control", "setting": "[3]; listed as 0,05% Aspartic acid", "value": "for 17 units better than negative control"}
    ]}
  ]
}
